“And” between values parts separate entries of the source, which are not always exact repeats. Equal values may be shown once.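 Results reflect a 48-hour exposure of cells in 96-well plates to compound at five concentrations. GI50: concentration for 50% inhibition of growth. TGI: concentration producing complete growth inhibition.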
Experiments:
Assay in all cases: inhibition of tumour cell growth, NCI panel, 48 h
SF-539 CNS = test system: SF-539 CNS
UACC-257 melanoma = test system: UACC-257 melanoma
HOP-62 NSCLC = test system: HOP-62 NSCLC
A549 NSCLC = test system: A549 NSCLC
OVCAR-4 ovarian = test system: OVCAR-4 ovarian
HCC-2998 colon = test system: HCC-2998 colon
SK-MEL-5 melanoma = test system: SK-MEL-5 melanoma
SK-MEL-2 melanoma = test system: SK-MEL-2 melanoma
ACHN renal = test system: ACHN renal
M14 melanoma = test system: M14 melanoma

| SMILES | TGI (SF-539 CNS) | TGI (UACC-257 melanoma) | TGI (HOP-62 NSCLC) | TGI (A549 NSCLC) | TGI (OVCAR-4 ovarian) | GI50 (HCC-2998 colon) | TGI (HCC-2998 colon) | TGI (SK-MEL-5 melanoma) | TGI (SK-MEL-2 melanoma) | TGI (ACHN renal) | TGI (M14 melanoma) | GI50 (SF-539 CNS) | GI50 (UACC-257 melanoma) | GI50 (HOP-62 NSCLC) | GI50 (A549 NSCLC) | GI50 (OVCAR-4 ovarian) | GI50 (SK-MEL-5 melanoma) | GI50 (SK-MEL-2 melanoma) | GI50 (ACHN renal) | GI50 (M14 melanoma) |
| --- | --- | --- | --- | --- | --- | --- | --- | --- | --- | --- | --- | --- | --- | --- | --- | --- | --- | --- | --- | --- |
| COc1cc(/C=C\c2ccc(Br)cc2)cc(OC)c1OC | 0.00366 µM | 11.3 µM | 23.9 µM | > 100 µM | 64.1 µM | 0.0192 µM | 26.8 µM | 0.109 µM | > 100 µM | > 100 µM |  |  |  |  |  |  |  |  |  |  |
| CC(NC(=O)C(=O)N/N=C1\C[C@@H](c2ccccc2)Nc2ccccc21)c1ccccc1 (stereo partly specified) | > 100 µM | > 100 µM | > 100 µM | > 100 µM | > 100 µM |  | > 100 µM |  | > 100 µM | > 100 µM | > 100 µM |  |  |  |  |  |  |  |  |  |
| O=C1C(=O)N(c2nccs2)C(=O)C(=O)C1c1nc2ccccc2s1 | > 100 µM | > 100 µM | > 100 µM | > 100 µM | > 100 µM |  | > 100 µM |  | > 100 µM | > 100 µM | > 100 µM |  |  |  |  |  |  |  |  |  |
| FC(F)(F)c1cccc2c(SCCc3n[nH]c(=S)o3)ccnc12 | > 100 µM | 89 µM | > 100 µM | > 100 µM | > 100 µM | 37.9 µM | > 100 µM | 44.1 µM | 82.6 µM | > 100 µM |  | 45.9 µM | 33.3 µM | 94.2 µM | 51.6 µM | 32.5 µM | 19.5 µM | 25.4 µM | 60.2 µM |  |
| O=C1c2ccccc2-c2c1c1ccc([N+](=O)[O-])cc1c(=O)n2CCCNCCO |  | 9.39 µM | 0.544 µM | 8.75 µM | 2.77 µM | 0.817 µM | 2.13 µM | 0.349 µM | 3.82 µM | 0.48 µM | 1.4 µM |  | 3.37 µM | 0.0408 µM | 0.946 µM | 0.492 µM | 0.0875 µM | 1.69 µM | 0.0496 µM | 0.0904 µM |
| OCC(CCc1c[nH]c2ccccc12)c1c[nH]c2ccccc12 (stereo unspecified) | 33.6 µM | 24.7 µM | 50.6 µM | 47.2 µM | 42.9 µM |  |  | 30.4 µM | 31.3 µM | 45.1 µM | 28.6 µM |  |  |  |  |  |  |  |  |  |
| CC(=O)OC1CCC2C(=CCC3C2(C)C(=O)CC2(C)C(C4(C)OC(C(C)C)=CC4=O)C(O)CC32C)C1(C)C (stereo unspecified) | 33.2 µM |  | > 100 µM | > 100 µM |  |  |  | 56.9 µM | 62.3 µM | > 100 µM | 50.9 µM |  |  |  |  |  |  |  |  |  |
| Cc1cnccc1N=Nc1ccc(N(C)C)cc1 | 69.2 µM | 53.5 µM | > 100 µM | > 100 µM | 61.2 µM |  | 49.6 µM | 29.5 µM |  | > 100 µM | > 100 µM |  |  |  |  |  |  |  |  |  |
| CC1(C(=O)O)CCOc2ccccc21 (stereo unspecified) | > 100 µM | > 100 µM | > 100 µM | > 100 µM | > 100 µM |  | > 100 µM | > 100 µM |  | > 100 µM | > 100 µM |  |  |  |  |  |  |  |  |  |
| CC(C)C[C@H](NC(=O)[C@H](Cc1cccc2ccccc12)NS(=O)(=O)c1cccc2cccnc12)B(O)O |  | 0.029 µM and 0.0357 µM | 0.563 µM | > 28.9 µM | 0.173 µM | 0.0174 µM | 0.0149 µM and 0.0389 µM | 0.0714 µM and 0.0206 µM | 0.095 µM and 0.0833 µM | > 38.8 µM |  | 0.000193 µM |  | 0.0511 µM | 0.0626 µM |  | 0.00539 µM |  |  |  |
| CCOC(=O)c1ccc(N2C(=O)Cc3ccccc3C2=O)cc1 | > 100 µM | > 100 µM |  | > 100 µM |  |  | > 100 µM | > 100 µM | > 100 µM | > 100 µM |  |  |  |  |  |  |  |  |  |  |
| C=C1C(OC/C=C/COC2O[C@@H]3O[C@@]4(C)CC[C@H]5[C@H](C)CC[C@@H](C2=C)[C@@]35OO4)O[C@@H]2O[C@@]3(C)CC[C@H]4[C@H](C)CC[C@@H]1[C@@]24OO3 (stereo partly specified) | 25.2 µM | 36 µM | 41.5 µM | > 60.5 µM | 26.2 µM |  |  | 27.3 µM | > 100 µM | 17.3 µM | 27.5 µM | 10 µM | 4.96 µM | 15.8 µM | 7.48 µM | 0.741 µM | 3.58 µM | 16 µM | 1.72 µM | 10.7 µM |
| O=c1oc2c3ccc4cnccc4c3[nH]c2c2ccccc12 | 25.2 µM | 57.6 µM | 8.3 µM | > 100 µM | 31 µM |  |  | 22.2 µM | 54.8 µM | > 100 µM | 26.6 µM | 11.5 µM | 20.3 µM | 3 µM | 3.96 µM | 15.5 µM | 8.01 µM | 18.8 µM | 31.5 µM | 13.4 µM |
| COc1ccc(-c2cc(-c3cccc(NS(C)(=O)=O)c3)nc(N)c2C#N)cc1 | 0.491 µM |  | 34.6 µM | > 93.4 µM | 99.6 µM | 0.185 µM | 2.44 µM | 4.92 µM | 14.6 µM | 43.9 µM | 10.7 µM | 0.0478 µM |  | 0.0689 µM | 0.109 µM | 1.24 µM | 0.113 µM | 0.119 µM | 0.0789 µM | 0.0808 µM |
| C=C(CNC(=O)c1ccccc1)c1ccc(C(=O)Nc2ccccc2N)cc1 | > 100 µM | 23.6 µM | > 100 µM | > 100 µM | > 100 µM | 9.3 µM | > 100 µM | 14.9 µM | > 100 µM | > 100 µM |  | 1.38 µM | 3.62 µM | 63.7 µM | 9.52 µM | 11.6 µM | 2.67 µM | 5.2 µM | 3.86 µM |  |
| Cc1ccc(C2=C(c3ccc(C)cc3)C(c3ccc(C)cc3)=C(c3ccc(C)cc3)C2=O)cc1 | > 100 µM | > 100 µM | > 100 µM | > 100 µM |  |  |  | > 100 µM | > 100 µM | > 100 µM | > 100 µM |  |  |  |  |  |  |  |  |  |
| O=C(CCSc1ccnc2c(C(F)(F)F)cccc12)N/N=C/c1cc(Cl)c(Cl)cc1Cl | 35.4 µM | > 100 µM | 35.8 µM | 53.5 µM | 64.2 µM | 34.6 µM | > 100 µM | 34.9 µM | > 100 µM | 35.5 µM |  | 18 µM | 83.5 µM | 19.8 µM | 24.8 µM | 25.4 µM | 19.3 µM | 50.5 µM | 19.7 µM |  |

From PubChem BioAssay (NCI)
